Assay results published in patent US20070148643A1, “Treatment of Huntington's Disease with EPA” (priority 2002, published 2007).

What was measured:
[1] = tested on: patients with genetically-confirmed HD; assay: one year randomised placebo-controlled trial of ethyl-EPA in HD, total motor score (TMS) subscale of the UHDRS; type: in vivo, human
Procedure: 135 patients with genetically-confirmed HD were entered into a one year trial. They were randomised to receive either 2 g/day of ethyl-EPA or an identical-appearing placebo. They were evaluated at baseline, six months and 12 months on the total motor score (TMS) subscale of the Unified Huntington's Disease Rating Scale (UHDRS). The UHDRS is the standard rating scale which is used to monitor the development of HD. The TMS is the component of the UHDRS which changes most reliably, rapidly and consistently and is therefore appropriate for monitoring the outcome of clinical trials. At the end of one year, change in TMS was compared in the placebo group and the ethyl-EPA group. […] However, when patients were stratified on the basis of their CAG repeat numbers, a dramatic benefit of ethyl-EPA was uncovered. […] Placebo patients with CAG repeat numbers 45 and below deteriorated by an average of 5.3%. In contrast, the same group of patients on ethyl-EPA improved over the year by 19.3%. This difference was highly statistically significant on either analysis of covariance or on chi square testing. […] Previously the best that had been hoped for in neurodegenerative diseases like HD was a slowing of deterioration rather than any actual improvement. […] Putting it another way, the treated patients had gained at least four and a half years of useful life.

[2] = tested on: severely disabled patients in the final stages of Huntington's disease; details: 2 g/day, 6 months, cited from earlier work

CC/C=C\C/C=C\C/C=C\C/C=C\C/C=C\CCCC(=O)OCC [ethyl-EPA, ethyl ester of eicosapentaenoate]
proportion of patients improving on TMS ([1]; 2 g/day, CAG repeats 45 and below): great majority of patients on ethyl-EPA actually improved
improvement in TMS over the year, patients with CAG repeat numbers 45 and below ([1]; 2 g/day, CAG repeats 45 and below, placebo deteriorated by 5.3%): 19.3%
benefit versus placebo, patients with CAG repeat numbers of 45 or below ([1]; 2 g/day, CAG repeats 45 or below (below 45)): large benefit
change in TMS versus placebo, patients with CAG repeat number of 46 or more ([1]; 2 g/day, CAG repeats 46 or more): did not show any difference at all between placebo and ethyl-EPA
change in TMS versus placebo, all patients ([1]; 2 g/day, all patients (not stratified)): better outcome on ethyl-EPA than on placebo but this was not statistically significant
improvement relative to the change in patients on placebo over one year ([1]; CAG repeats 45 and below): more than three and a half times more
separation of EPA and placebo patients in years of disease progression after one year ([1]; CAG repeats 45 and below): more than four and a half years
clinical course (abnormal movements, emotional lability and irritability, memory and cognitive function) ([2]; three patients on ethyl-EPA, four on placebo): all three patients who improved were found to be taking ethyl-EPA
lateral ventricle size by MRI ([2]; two patients on ethyl-EPA, beginning versus end of study): reduction in lateral ventricle size
